Reference: paper PMC11388019, “Autoregulatory mechanism of enzyme activity by the nuclear localization signal of lysine-specific demethylase 1 [drawing 1]” (The Journal of Biological Chemistry, 2024)
“Also recorded” adds a separate entry of the source. Like-named read-outs stand apart in the source and are kept apart here.

Legend:
ΔN LSD1-CoREST [1] = molecular target: T1, ΔN LSD1-CoREST (Homo sapiens, UniProt O60341+Q9UKL0); test: Horseradish peroxidase (HRP) coupled demethylase assay on 21 a.a. H3K4me2 peptide substrate; assay type: biochemical; conditions: for effect of peptide on LSD1 demethylation activity (absorbance vs time): 10 μM peptide, 10 μM H3K4me2 21 aa substrate; for effect of peptide on LSD1 demethylation activity (absorbance vs time) / Ki: 0.3 μM ΔN LSD1-CoREST; for effect of peptide on LSD1 demethylation activity (absorbance vs time) / Ki / acts as substrate of LSD1: HRP-coupled assay; for Ki: H3K4me2 (1-21) peptide 10-60 μM, 50 mM Hepes pH 7.5, 25 °C, competitive fit, N = 2, read-out: inhibition constant Ki (Ki app) on H3K4me2 peptide substrate; for fold weaker inhibition (Ki) compared to the NLS peptide: 21 aa H3K4me2 model peptide substrate; for acts as substrate of LSD1: 10 μM peptide alone
T1 construct: The N terminally truncated (aa 171–852) LSD1 plasmid (pGEX-6P-1-ΔN LSD1); GST (cleaved yes); made in house; host or cells: E. coli Rosetta (DE3) pLysS, co-expression
Description: An inhibition study was performed using horseradish peroxidase (HRP) coupled demethylase assay in the presence of NLS, P1, or P2 peptides, using the 21 a.a H3K4me ([2]) peptide as substrate ([9], [38]). […] When a full inhibition study was performed using different concentrations of the 21 a.a. […] Control experiments indicate that the NLS peptide directly influences the LSD1 catalyzed reaction and that inhibition is not an artifact of the HRP-coupled assay system (Fig. S8).
LSD1-CoREST activity assays were performed using well-established peroxidase-coupled assay that monitors H2O2 production under aerobic conditions ([48]). Initial velocity measurements were measured using a Shimadzu UV2600 UV-Visible spectrophotometer equipped with thermostated cell holder (T = 25 °C). ΔN LSD1-CoREST was buffer exchanged into 25 mM Hepes pH 7.4, 100 mM NaCl, and 5 mM TCEP buffer. Each 150 μl reaction mixture contained 50 mM Hepes (Na) pH 7.5, 0.3 μM ΔN LSD1-CoREST, 1 μg of HRP, 0.1 mM 4-aminoantipyrine, and contained various substrate concentrations (10, 20, 30, 40, and 60 μM). Enzyme reactions were initiated by the addition of substrate; H3K4me2 peptide aa 1 to 21 or the NLS-K114me2 peptide (107–120, dimethylated at K114), into the reaction mixture in quartz cuvette. Activity region monitored was 0 to 30 s, and total time of each measurement was 180 s. Baseline correction was done at 505 to 525 nm. Changes in absorbance were measured at 515 nm wavelength and initial velocity calculations were done using an extinction coefficient of 26,000 M^−1 cm^−1 by Graphpad Prism (http://www.graphpad.com). Initial velocity values obtained from absorbance versus time graph, and they were fitted to Michaelis-Menten equation nonlinear regression and obtained Vmax (maximum velocity), apparent kmax (turnover number) and Km (Michaelis constant).
Peptide inhibition assays in presence of model substrate were conducted as follows using a peroxidase-coupled assay that monitors H2O2 production under aerobic conditions. A 150 μl reaction mixture contained 50 mM Hepes (Na) pH 7.5, 0.3 μM ΔN LSD1-CoREST, 1 μg of HRP, 0.1 mM 4-aminoantipyrine, 1.0 mM 3,5-dichloro-2- hydroxybenzenesulfonic acid, NLSK114me2 10 μM (as inhibitor and substrate)/NLSp∗ 10 μM/NLS 10 μM/P1 10 μM/P2 10 μM and H3K4me2 21aa substrate 10 μM. Enzyme reactions were initiated by the addition of substrate; H3K4me2 peptide aa (1–21) into the reaction mixture in quartz cuvette. Initial velocity values obtained from absorbance versus time graph were fitted to inhibition models using nonlinear regression fit. Complete kinetics profiles were performed for the NLS and NLSp∗ peptides, where different concentrations of NLS (0, 2.5 μM, 5 μM, 10 μM) or NLSp∗ (0, 10 μM, 40 μM, 100 μM) were incubated with freshly prepared ΔN LSD1-CoREST.

ΔN LSD1-CoREST [2] = molecular target: T1, ΔN LSD1-CoREST; test: Quantitative Western blot assay of demethylation on H3K4me2 nucleosome substrates in presence of NLS peptide; assay type: biochemical; conditions: 2 μM ΔN LSD1-CoREST, 100 nM H3K4me2 nucleosome (147 bp DNA), 50 mM Hepes pH 8.0, 50 mM KCl, 25 °C, from relative kobs, Hill coefficient set to 1, N = 2; read-out: IC50 for inhibition of demethylation on H3K4me2 nucleosome substrates
Description: Based on these coupled assay results and data (Fig. 2, C and D), we developed an in vitro quantitative WB assay to monitor LSD1-catalyzed demethylation on H3K4me2 nucleosome substrates. This approach provides enhanced reliability of the antibody reagents as well as a robust measure of the impact of the NLS peptide on LSD1’s ability to demethylate nucleosomes ([39]). A series of time-course assays with increasing NLS peptide measured the fraction of demethylated H3K4me2 nucleosomes containing a 147 bp DNA, and this was visualized using an anti-H3K4me2-specific antibody or a control H3 antibody (Fig. 4, B and C). Here, dividing the H3K4me2 antibody signal by the H3 antibody signal allowed for quantitation of each data point, where the disappearance of H3K4me2 signal directly corresponds to the NLS's ability to impact LSD1’s demethylation activity. The H3K4me2/H3 ratios were normalized at time zero and plotted as a function of time (minutes), and the determined rate constant (kobs) values were evaluated at increasing NLS concentrations (Fig. 4, B and C).
Quantitative WB activity assays of the ΔN LSD1- CoREST and FL-LSD1- CoREST at 2, 5, 10, and 20 μM concentrations were performed in reaction conditions containing 50 mM Hepes (pH 8.0), 50 mM KCl, 5% glycerol, and 1 mM TCEP and were initiated with 100 nM nucleosome substrate. […]

LSD1 = conditions: H3K4me2 model peptide substrate, Ki/M, read-out: Ki (Ki app), Table S4, cited from earlier work
Description: Comparative (Ki app) data of peptide sequences that inhibit LSD1-catalytzed demethylation on a H3K4me2 model (peptide) substrate.

In the case of `CC(=O)NCC(=O)N[C@@H](CCCNC(=N)N)C(=O)N[C@@H](CCCNC(=N)N)C(=O)N[C@H](C(=O)N[C@@H](CO)C(=O)N[C@@H](CCCNC(=N)N)C(=O)N[C@@H](CCCNC(=N)N)C(=O)N[C@@H](CCCCN)C(=O)N[C@@H](CCCNC(=N)N)C(=O)N[C@@H](C)C(=O)N[C@@H](CCCCN)C(=O)N[C@H](C(=O)N[C@@H](CCC(=O)O)C(=O)N[C@@H](Cc1ccc(O)cc1)C(N)=O)C(C)C)[C@@H](C)O` [NLS], the “effect of peptide on LSD1 demethylation activity (absorbance vs time)” value (“effect of peptide … (absorbance vs time)” for short) (ΔN LSD1-CoREST [1]; listed as NLS peptide) is reported as “inhibits LSD1; also recorded: both inhibit LSD1 activity; also recorded: acted as an inhibitor”, the Ki (ΔN LSD1-CoREST [1]) is reported as 3.3 ± 0.6 µM and the mode of inhibition (ΔN LSD1-CoREST [1]; Lineweaver Burk plot, 0-10 μM NLS peptide, H3K4me2 peptide substrate) is reported as “competitive inhibition; also recorded: competitive inhibitor”. It also gave an IC50 (ΔN LSD1-CoREST [2]) of 30.4 ± 3.2 µM.

For “ARTKQTARKSTG [H3 (1−12), histone H3 peptide residues 1-12]”, the Ki (LSD1; supplement numbering ref 5, 6) is given as 199 µM.

For “ARTKmeQTARKSpTGGKAPRKQLA [H3(1-21) K4me S10p]”, the Ki (LSD1; supplement numbering ref 5, 6) is listed as 31 µM.

For “ARTKmeQTARmeKSTGGKAPRKQLA [H3(1-21)K4meR8me]”, the Ki (LSD1; supplement numbering ref 7) is given as 100 µM.

In the case of “ARTKpropQTARKSTGGKAPRKQLA [H3(1-21) K4propargylamine]”, the Ki (LSD1; supplement numbering ref 9) is listed as 16.6 µM.

For Ac-GRRDDRRKRAKVEY-NH2 [NLS-p∗], the “effect of peptide … (absorbance vs time)” value (ΔN LSD1-CoREST [1]) was “do not obstruct LSD1-catalyzed demethylation”, the “effect of peptide … (absorbance vs time)” value (ΔN LSD1-CoREST [1]; listed as NLSp*) was “does not inhibit LSD1-catalyzed” and the “fold weaker inhibition (Ki) compared to the NLS peptide” value (ΔN LSD1-CoREST [1]) was “approximately 12 fold”. The “fold weaker inhibition (Ki) compared to the NLS peptide” value (ΔN LSD1-CoREST [1]; listed as NLSp*) was 10 fold and the Ki (ΔN LSD1-CoREST [1]) was 38.7 ± 1.8 µM.

In the case of “GRRTSRRKme2RAKVEY [NLS-K114me2, dimethylated K114 NLS peptide, aa 107–120]”, the “acts as substrate of LSD1” value (ΔN LSD1-CoREST [1]) is reported as “does not serve as a substrate”, the “acts as substrate of LSD1” value (ΔN LSD1-CoREST [1]; listed as NLS K114me2) is reported as “does NOT act as a substrate of LSD1” and the “effect of peptide … (absorbance vs time)” value (ΔN LSD1-CoREST [1]) is reported as “inhibition of demethylation activity was retained”. For the same compound, the “effect of peptide … (absorbance vs time)” value (ΔN LSD1-CoREST [1]; listed as NLS K114 me2) was “both inhibit LSD1 activity”.

For PRGFLVKRSKKSTPVSYRVR [INSM1 (1−20)], the Ki (LSD1; supplement numbering ref 4) is given as 0.24 µM.

For PRSFLVRKPSDPNRKPNYSE [SNAIL (1-20)], the Ki (LSD1; supplement numbering ref 4) is given as 0.21 µM.

For “QTARKSTGGKAPRKQLA [H3(5-21), histone H3 peptide residues 5-21]”, the Ki (LSD1; supplement numbering ref 5, 6) is listed as 87 µM.

For “REMDESLANLSEDEYY [P1, negatively charged LSD1 peptide region a.a; 121–136]”, the “effect of peptide … (absorbance vs time)” value (ΔN LSD1-CoREST [1]) was “do not inhibit; also recorded: did not influence the demethylation reaction”.

In the case of “YSEEERNAKAEKEKK [P2, neutral-charged α-helical containing LSD1 peptide region a.a; 137–151]”, the “effect of peptide … (absorbance vs time)” value (ΔN LSD1-CoREST [1]) is reported as “do not inhibit; also recorded: did not influence the demethylation reaction”.
